pIC50: −log10 of the molar value.
Columns and labels:
HeLa = assay: Cytotoxicity against human HeLa cells assessed as reduction in cell viability at 50 uM after 24 hrs by MTT assay relative to control; type: toxicity, cell-based
[1] = Cytotoxicity against human 1321N1 cells assessed as reduction in cell viability at 50 uM after 24 hrs by MTT assay relative to control; type: toxicity, cell-based; details: 1321n1, 24 h
HEK293 = assay: Cytotoxicity against HEK293 cells assessed as reduction in cell viability at 50 uM after 24 hrs by MTT assay relative to control; type: toxicity, cell-based; details: human, hek293, 24 h
P2X purinoceptor 2 = biological target: T1, P2X purinoceptor 2 (Homo sapiens, UniProt Q9UBL9); assay: Antagonist activity against human P2X2R stably transfected in human 1321N1 cells incubated for 30 mins by Fura-2 AM staining based calcium influx assay; type: cell-based
T1 sequence (Q9UBL9 whole entry): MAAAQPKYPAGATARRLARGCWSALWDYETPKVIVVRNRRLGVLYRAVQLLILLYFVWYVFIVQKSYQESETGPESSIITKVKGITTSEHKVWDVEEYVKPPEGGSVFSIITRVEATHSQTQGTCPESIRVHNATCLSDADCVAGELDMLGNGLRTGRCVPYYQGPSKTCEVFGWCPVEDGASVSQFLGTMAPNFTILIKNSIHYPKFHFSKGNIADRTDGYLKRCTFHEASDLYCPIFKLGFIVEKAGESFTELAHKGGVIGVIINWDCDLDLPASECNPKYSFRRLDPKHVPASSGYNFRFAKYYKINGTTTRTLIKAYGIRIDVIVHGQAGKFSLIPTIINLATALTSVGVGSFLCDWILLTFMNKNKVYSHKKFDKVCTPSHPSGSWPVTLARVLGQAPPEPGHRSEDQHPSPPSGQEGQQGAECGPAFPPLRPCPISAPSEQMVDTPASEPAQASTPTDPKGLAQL

P2X purinoceptor 4 = biological target: T2, P2X purinoceptor 4 (Homo sapiens, UniProt Q99571); assay: Antagonist activity against human P2X4R stably transfected in human 1321N1 cells incubated for 30 mins by Fura-2 AM staining based calcium influx assay; type: cell-based
T2 sequence (Q99571 whole entry): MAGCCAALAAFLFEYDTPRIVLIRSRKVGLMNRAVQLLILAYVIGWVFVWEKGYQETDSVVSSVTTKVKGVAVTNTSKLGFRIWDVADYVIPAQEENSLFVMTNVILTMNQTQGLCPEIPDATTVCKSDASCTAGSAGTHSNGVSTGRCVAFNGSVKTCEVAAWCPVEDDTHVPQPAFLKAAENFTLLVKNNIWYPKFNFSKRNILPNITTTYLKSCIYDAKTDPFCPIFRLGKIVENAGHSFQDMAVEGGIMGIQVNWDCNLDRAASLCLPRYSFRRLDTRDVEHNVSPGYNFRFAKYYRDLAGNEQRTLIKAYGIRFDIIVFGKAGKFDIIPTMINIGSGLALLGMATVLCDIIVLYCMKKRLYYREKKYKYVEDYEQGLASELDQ

P2X purinoceptor 7 [2] = biological target: T3, P2X purinoceptor 7 (Homo sapiens, UniProt Q99572); assay: Antagonist activity against human P2X7R stably transfected in human 1321N1 cells incubated for 30 mins by Fura-2 AM staining based calcium influx assay; type: cell-based
T3 sequence (Q99572 whole entry): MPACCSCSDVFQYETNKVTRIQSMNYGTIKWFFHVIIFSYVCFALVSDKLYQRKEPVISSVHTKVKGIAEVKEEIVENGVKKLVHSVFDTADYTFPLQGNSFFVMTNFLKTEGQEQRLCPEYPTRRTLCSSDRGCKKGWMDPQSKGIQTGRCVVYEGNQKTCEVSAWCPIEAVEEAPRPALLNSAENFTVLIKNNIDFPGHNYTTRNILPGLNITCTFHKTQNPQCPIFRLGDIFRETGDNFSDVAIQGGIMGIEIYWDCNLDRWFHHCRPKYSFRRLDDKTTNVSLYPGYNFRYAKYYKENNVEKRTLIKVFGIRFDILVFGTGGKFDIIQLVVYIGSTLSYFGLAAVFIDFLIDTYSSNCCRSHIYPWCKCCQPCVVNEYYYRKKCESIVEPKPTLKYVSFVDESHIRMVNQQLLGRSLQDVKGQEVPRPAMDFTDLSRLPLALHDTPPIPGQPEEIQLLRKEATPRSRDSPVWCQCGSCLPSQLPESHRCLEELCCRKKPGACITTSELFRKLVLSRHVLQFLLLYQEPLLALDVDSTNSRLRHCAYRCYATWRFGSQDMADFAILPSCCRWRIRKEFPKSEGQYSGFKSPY

P2X purinoceptor 7 [3] = biological target: T3, P2X purinoceptor 7; assay: Antagonist activity against human P2X7R stably transfected in human 1321N1 cells assessed as reduction in BzATP-induced activity incubated for 5 to 10 mins by EtBr staining based fluorescence assay; type: cell-based
[4] = biological target: T4, P2X purinoceptor 2 (Homo sapiens) (UniProt Q9UBL9); assay: Antagonist activity against human P2X2R stably transfected in human 1321N1 cells at 50 uM incubated for 30 mins by Fura-2 AM staining based calcium influx assay relative to control; type: cell-based; set-up: scale not given: the % may be the effect or the level left
T4 sequence (whole entry): T1 sequence (Q9UBL9 whole entry)

[5] = biological target: T5, P2X purinoceptor 4 (Homo sapiens) (UniProt Q99571); assay: Antagonist activity against human P2X4R stably transfected in human 1321N1 cells at 50 uM incubated for 30 mins by Fura-2 AM staining based calcium influx assay relative to control; type: cell-based; set-up: scale not given: the % may be the effect or the level left
T5 sequence (whole entry): T2 sequence (Q99571 whole entry)

P2X purinoceptor 5 [6] = biological target: T6, P2X purinoceptor 5 (Homo sapiens, UniProt Q93086); assay: Antagonist activity against human P2X5R stably transfected in human 1321N1 cells at 50 uM incubated for 30 mins by Fura-2 AM staining based calcium influx assay relative to control; type: cell-based; set-up: scale not given: the % may be the effect or the level left
[7] = biological target: T7, P2X purinoceptor 7 (Homo sapiens) (UniProt Q99572); assay: Antagonist activity against human P2X7R stably transfected in human 1321N1 cells at 50 uM incubated for 30 mins by Fura-2 AM staining based calcium influx assay relative to control; type: cell-based; set-up: scale not given: the % may be the effect or the level left
T7 sequence (whole entry): T3 sequence (Q99572 whole entry)

P2X purinoceptor 5 [8] = biological target: T6, P2X purinoceptor 5; assay: Antagonist activity against human P2X5R stably transfected in human 1321N1 cells incubated for 30 mins by Fura-2 AM staining based calcium influx assay; type: cell-based
[9] = biological target: T5, P2X purinoceptor 4 (Homo sapiens); assay: Antagonist activity against human P2X4R stably transfected in human 1321N1 cells assessed as ATP Emax at 0.05 uM incubated for 30 mins by Fura-2 AM staining based calcium influx assay relative to control; type: cell-based; details: filed as antagonist
[10] = biological target: T5, P2X purinoceptor 4 (Homo sapiens); assay: Antagonist activity against human P2X4R stably transfected in human 1321N1 cells assessed as ATP Emax at 0.1 uM incubated for 30 mins by Fura-2 AM staining based calcium influx assay relative to control; type: cell-based; details: filed as antagonist
[11] = biological target: T5, P2X purinoceptor 4 (Homo sapiens); assay: Antagonist activity against human P2X4R stably transfected in human 1321N1 cells assessed as ATP Emax at 0.2 uM incubated for 30 mins by Fura-2 AM staining based calcium influx assay relative to control; type: cell-based; details: filed as antagonist
[12] = biological target: T7, P2X purinoceptor 7 (Homo sapiens); assay: Antagonist activity against human P2X7R stably transfected in human 1321N1 cells assessed as BzATP Emax at 0.05 uM incubated for 30 mins by Fura-2 AM staining based calcium influx assay relative to control; type: cell-based; details: filed as antagonist
[13] = biological target: T7, P2X purinoceptor 7 (Homo sapiens); assay: Antagonist activity against human P2X7R stably transfected in human 1321N1 cells assessed as BzATP Emax at 0.1 uM incubated for 30 mins by Fura-2 AM staining based calcium influx assay relative to control; type: cell-based; details: filed as antagonist
[14] = biological target: T7, P2X purinoceptor 7 (Homo sapiens); assay: Antagonist activity against human P2X7R stably transfected in human 1321N1 cells assessed as BzATP Emax at 0.2 uM incubated for 30 mins by Fura-2 AM staining based calcium influx assay relative to control; type: cell-based

T6 sequence (Q93086 whole entry): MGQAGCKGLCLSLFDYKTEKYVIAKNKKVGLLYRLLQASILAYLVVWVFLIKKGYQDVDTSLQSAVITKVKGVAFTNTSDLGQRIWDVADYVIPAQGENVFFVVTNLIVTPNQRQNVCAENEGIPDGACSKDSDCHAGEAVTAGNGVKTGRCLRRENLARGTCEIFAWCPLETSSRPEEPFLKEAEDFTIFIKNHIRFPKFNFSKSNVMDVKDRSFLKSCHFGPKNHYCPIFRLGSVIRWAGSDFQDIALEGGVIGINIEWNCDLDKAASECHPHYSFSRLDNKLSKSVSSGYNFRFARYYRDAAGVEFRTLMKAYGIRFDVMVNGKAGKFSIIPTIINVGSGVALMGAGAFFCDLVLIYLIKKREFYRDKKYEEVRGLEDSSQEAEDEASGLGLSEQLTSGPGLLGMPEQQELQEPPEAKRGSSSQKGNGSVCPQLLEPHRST

| Compound | Activity (HeLa) | Activity [1] | Activity (HEK293) | pIC50 (P2X purinoceptor 4) | pIC50 (P2X purinoceptor 7 [2]) | Activity [4] | Activity (P2X purinoceptor 5 [6]) | further results |
| --- | --- | --- | --- | --- | --- | --- | --- | --- |
| O=C(NC(=S)Nc1cccnc1Cl)c1ccc2c(c1)OCO2 | 1.94% | 2.82% | 6.15% | 6.03 | 7.47 |  |  | pIC50 (P2X purinoceptor 2): 4.45; pIC50 (P2X purinoceptor 7 [3]): 7.47 |
| O=C(NC(=S)Nc1ccc(Br)cc1)c1ccc2c(c1)OCO2 | 7.64% | 3.72% | 2.64% | 4.85 |  | 35% | 38% | Activity [5]: 31%; Activity [7]: 22% |
| CC(C)c1ccc(NC(=S)NC(=O)c2ccc3c(c2)OCO3)c(Br)c1 | 4.53% | 3.83% | 3.73% | 7.41 | 4.88 | 35% | 27% |  |
| COc1ccc(NC(=S)NC(=O)c2ccc3c(c2)OCO3)cc1 | 1.38% | 3.32% | 7.44% |  |  | 22% | 12% | Activity ([5]; filed as antagonist): 44%; Activity [7]: 36% |
| O=C(NC(=S)Nc1cc(Cl)c(O)c(Cl)c1)c1ccc2c(c1)OCO2 |  |  |  | 5.12 | 5.78 |  |  |  |
| O=C(NC(=S)Nc1ccccc1O)c1ccc2c(c1)OCO2 |  |  |  | 5.66 |  |  |  |  |
| O=C(NC(=S)Nc1ccc(O)cc1)c1ccc2c(c1)OCO2 |  |  |  | 5.84 | 6.04 |  |  | pIC50 (P2X purinoceptor 5 [8]): 4.56; pIC50 (P2X purinoceptor 7 [3]): 5.95 |
| O=C(NC(=S)Nc1cc(Br)cc(C(F)(F)F)c1)c1ccc2c(c1)OCO2 | 5.59% | 3.34% | 4.48% | 4.74 | 5.90 | 22% | 17% |  |
| O=C(NC(=S)Nc1c(Br)ccc(C(F)(F)F)c1Br)c1ccc2c(c1)OCO2 | 5.35% | 7.19% | 7.24% | 7.26 | 5.45 | 38% |  | Emax [9]: 90%; Emax [10]: 68%; Emax [11]: 40% |
| NS(=O)(=O)c1cccc(NC(=S)NC(=O)c2ccc3c(c2)OCO3)c1 | 2.52% | 6.41% | 4.19% | 5.66 | 6.96 | 17% | 23% | pIC50 (P2X purinoceptor 7 [3]): 6.76 |
| Cc1nc(/N=N/c2ccc(S(=O)(=O)O)cc2S(=O)(=O)O)c(COP(=O)(O)O)c(C=O)c1O | 20.43% | 12.41% | 46.58% |  |  |  |  |  |
| O=C(NC(=S)Nc1ccc([N+](=O)[O-])cc1)c1ccc2c(c1)OCO2 |  |  |  | 5.42 | 5.72 |  |  | pIC50 (P2X purinoceptor 5 [8]): 5.78 |
| COc1cccc(NC(=S)NC(=O)c2ccc3c(c2)OCO3)c1 | 4.18% | 4.15% | 1.95% |  |  | 22% | 25% | Activity [5]: 19%; Activity [7]: 33% |
| O=C(O)c1ccc2c(c1)OCO2 |  |  |  |  |  | 21% | 10% | Activity [5]: 29% |
| CC(C)c1cc(Br)c(NC(=O)Nc2cccnc2)c(Br)c1 | 14.81% | 16.7% | 25.19% |  |  |  |  | Activity ([7]; filed as antagonist): 45% |
| COc1ccccc1NC(=S)NC(=O)c1ccc2c(c1)OCO2 | 1.7% | 5.41% | 4.6% | 5.44 |  | 39% | 26% | Activity [7]: 38% |
| Cc1ccc(C(=O)Nc2ccc(S(=O)(=O)O)c3cc(S(=O)(=O)O)cc(S(=O)(=O)O)c23)cc1NC(=O)c1cccc(NC(=O)Nc2cccc(C(=O)Nc3cc(C(=O)Nc4ccc(S(=O)(=O)O)c5cc(S(=O)(=O)O)cc(S(=O)(=O)O)c45)ccc3C)c2)c1 [SURAMIN] | 11.46% | 11.56% | 49.01% | 5.33 |  |  |  | pIC50 (P2X purinoceptor 2): 4.85; pIC50 (P2X purinoceptor 5 [8]): 4.80 |
| O=C(NC(=S)Nc1cccc2cccnc12)c1ccc2c(c1)OCO2 | 5.45% | 3.04% | 1.42% | 6.04 | 7.74 |  | 29% | Activity ([4]; filed as antagonist): 41%; Emax [12]: 83%; Emax [13]: 68%; Emax [14]: 29%; pIC50 (P2X purinoceptor 7 [3]): 7.52 |
| Cc1cc(Br)ccc1NC(=S)NC(=O)c1ccc2c(c1)OCO2 | 1.64% | 7.09% | 3.38% | 4.85 |  | 18% | 25% | Activity [7]: 34% |
| NS(=O)(=O)c1ccc(CCNC(=S)NC(=O)c2ccc3c(c2)OCO3)cc1 | 4.26% | 5.81% | 5.77% | 5.98 | 7.35 | 33% | 32% | pIC50 (P2X purinoceptor 7 [3]): 7.33 |

Reference: ChEMBL document CHEMBL5137039, “Therapeutic potentials and structure-activity relationship of 1,3-benzodioxole N-carbamothioyl carboxamide derivatives as selective and potent antagonists of P2X4 and P2X7 receptors” (Eur J Med Chem, 2022)
